Data published in publication PMC4998035 (International Journal of Nanomedicine, 2016).
Converted amounts (≈) assume the structure as drawn. Where two headings read alike, the source gives them in different places.

Columns and labels:
[1] = in vivo; cited from earlier work
[2] = in vitro; cited from earlier work
[3] = Solubility of FK506 in NIC solution; type: physicochemical
[4] = In vitro percutaneous permeation, vertical Franz diffusion cell; type: in vitro ADME, Sprague Dawley rats; settings: 20% NIC solution without FK506; data not shown

## C=CC[C@@H]1/C=C(\C)C[C@H](C)C[C@H](OC)[C@H]2O[C@@](O)(C(=O)C(=O)N3CCCC[C@H]3C(=O)O[C@H](/C(C)=C/[C@@H]3CC[C@@H](O)[C@H](OC)C3)[C@H](C)[C@@H](O)CC1=O)[C@H](C)C[C@@H]2OC [FK506, Tacrolimus]
[1]
  Immunosuppressant activity relative to cyclosporine A: 10–20 fold
[2]
  Immunosuppressant activity relative to cyclosporine A: 30–100 fold
[3]; 30% (w/v) NIC vs water
  Solubility in 30% (w/v) NIC solution relative to that in water: 532 fold
[3]; water (0% (w/v) NIC), 37 °C, water, thermodynamic from solid
  solubility at 3 days: 0.69 ± 0.24 µg/mL (≈ 0.858 µM)

## NC(=O)c1cccnc1 [NIC, nicotinamide]
[4]
  Permeation of NIC into skin: easily permeate into skin
